Several values for one entry are separate records, joined by “and”; a condition that tells them apart may be missing. Identical values can stand only once. Like-named read-outs stand apart in the source and are kept apart here.
Key:
dog hepatocytes = test: Metabolite profiling in cryopreserved hepatocytes (in vitro MetID); format: in vitro ADME; conditions: 1 µM SYN2, 37 °C
Protocol: (§1) The metabolite profiling and characterization experiment of SYN2 molecule (in vitro MetID, Admescope) was conducted to evaluate potential metabolic pathways. In order to characterize the metabolites of SYN2, the compound was incubated in cryopreserved rat, dog and human hepatocytes. Prior to the incubation, the hepatocytes were thawed, suspended in Williams medium E and then centrifuged to receive a target density of about 1 million cells/ml. A SYN2 solution of 1 µM was then added to the hepatocyte suspension and incubated at 37 °C for 0, 30 and 60 min. The incubations were stopped by the addition of acetonitrile, then frozen and centrifuged to remove precipitated proteins. Supernatants were then analysed with ultra-performance liquid chromatography (UPLC) and high-resolution mass spectrometry (HRMS).
(§2) Compound Discoverer (CD) was used for data mining with manual confirmation for metabolite profiling and characterization.

human hepatocytes = test: as above; format: in vitro ADME; conditions: 1 µM SYN2, 37 °C
Protocol: as §1, §2

rat hepatocytes = test: as above; format: in vitro ADME; conditions: 1 µM SYN2, 37 °C
Protocol: as §1, §2

[1] = cited from earlier work
[2] = cited from earlier work; for accumulation in cardiac tissue / heart/liver ratio / heart/lungs ratio: 1 h post-injection
[3] = available SPECT and PET tracers
[4] = human studies, exercise stress subjects
[5] = human studies, exercise stress subjects, listed as [^18F]flurpiridaz

CNc1ccc2cc3ccc(N(C)C)cc3[n+](CCF)c2c1 [M1]
Relative abundance of metabolites calculated as % of parent (SYN2), Dog (dog hepatocytes; 30 min): 34 % of parent
Relative abundance of metabolites calculated as % of parent (SYN2), Dog (dog hepatocytes; 60 min): 58 % of parent
Relative abundance of metabolites calculated as % of parent (SYN2), Human (human hepatocytes; 30 min): 10 % of parent
Relative abundance of metabolites calculated as % of parent (SYN2), Human (human hepatocytes; 60 min): 19 % of parent
Relative abundance of metabolites calculated as % of parent (SYN2), Rat (rat hepatocytes; 30 min): 94 % of parent
Relative abundance of metabolites calculated as % of parent (SYN2), Rat (rat hepatocytes; 60 min): 137 % of parent

CNc1ccc2cc3ccc(N)cc3[n+](CCF)c2c1 [M3]
Relative abundance of metabolites calculated as % of parent (SYN2), Dog (dog hepatocytes; 30 min): 9 % of parent
Relative abundance of metabolites calculated as % of parent (SYN2), Dog (dog hepatocytes; 60 min): 46 % of parent
Relative abundance of metabolites calculated as % of parent (SYN2), Human (human hepatocytes; 30 min): 1 % of parent
Relative abundance of metabolites calculated as % of parent (SYN2), Human (human hepatocytes; 60 min): 3 % of parent
Relative abundance of metabolites calculated as % of parent (SYN2), Rat (rat hepatocytes; 30 min): 27 % of parent
Relative abundance of metabolites calculated as % of parent (SYN2), Rat (rat hepatocytes; 60 min): 666 % of parent

CN(C)c1ccc2cc3ccc(N(C)C)cc3nc2c1 [M4]
Relative abundance of metabolites calculated as % of parent (SYN2), Dog (dog hepatocytes; 30 min): Trace
Relative abundance of metabolites calculated as % of parent (SYN2), Human (human hepatocytes; 30 min): 1 % of parent
Relative abundance of metabolites calculated as % of parent (SYN2), Human (human hepatocytes; 60 min): 1 % of parent
Relative abundance of metabolites calculated as % of parent (SYN2), Rat (rat hepatocytes; 30 min): Trace

[13NH3] [[^13N]Ammonia]
Effective dose [1, 3]: 0.002 mSv/MBq

[15OH2] [[^15O]H2O]
Effective dose [1, 3]: 0.0011 mSv/MBq

CC(C)(C)n1ncc(OCc2ccc(COCC[18F])cc2)c(Cl)c1=O [[^18F]Flurpiridaz]
accumulation in cardiac tissue [2]: 3.3 ± 0.3 %ID/g
heart/liver ratio [2]: 3.7 ± 0.2
heart/lungs ratio [2]: 12.7 ± 1.4
heart/blood ratio [2]: 13
Effective dose [1, 3]: 0.015 mSv/MBq
Absorbed dose per administrated activity, Adrenals [1, 4]: 1.40E-02 mSv/MBq
Absorbed dose per administrated activity, Brain [1, 4]: 1.10E-02 mSv/MBq
Absorbed dose per administrated activity, Breasts [1, 4]: 1.00E-02 mSv/MBq
Absorbed dose per administrated activity, Gallbladder Wall [1, 4]: 1.50E-02 mSv/MBq
Absorbed dose per administrated activity, Heart Wall [1, 4]: 3.90E-02 mSv/MBq
Absorbed dose per administrated activity, Kidneys [1, 4]: 2.70E-02 mSv/MBq
Absorbed dose per administrated activity, Liver [1, 4]: 1.50E-02 mSv/MBq
Absorbed dose per administrated activity, Lower Large Intestine Wall [1, 4]: 1.40E-02 mSv/MBq
Absorbed dose per administrated activity, Lungs [1, 4]: 1.20E-02 mSv/MBq
Absorbed dose per administrated activity, Muscle [1, 4]: 1.20E-02 mSv/MBq
Absorbed dose per administrated activity, Osteogenic Cells [1, 4]: 2.00E-02 mSv/MBq
Absorbed dose per administrated activity, Ovaries [1, 4]: 1.40E-02 mSv/MBq
Absorbed dose per administrated activity, Pancreas [1, 4]: 1.50E-02 mSv/MBq
Absorbed dose per administrated activity, Red Marrow [1, 4]: 1.50E-02 mSv/MBq
Absorbed dose per administrated activity, Skin [1, 4]: 9.00E-03 mSv/MBq
Absorbed dose per administrated activity, Small Intestine [1, 4]: 1.40E-02 mSv/MBq
Absorbed dose per administrated activity, Spleen [1, 4]: 1.30E-02 mSv/MBq
Absorbed dose per administrated activity, Stomach Wall [1, 4]: 2.40E-02 mSv/MBq
Absorbed dose per administrated activity, Testes [1, 4]: 1.10E-02 mSv/MBq
Absorbed dose per administrated activity, Thymus [1, 4]: 1.30E-02 mSv/MBq
Absorbed dose per administrated activity, Thyroid [1, 4]: 1.40E-02 mSv/MBq
Absorbed dose per administrated activity, Total Body [1, 4]: 1.20E-02 mSv/MBq
Absorbed dose per administrated activity, Upper Large Intestine Wall [1, 4]: 1.40E-02 mSv/MBq
Absorbed dose per administrated activity, Urinary Bladder Wall [1, 4]: 1.60E-02 mSv/MBq
Absorbed dose per administrated activity, Uterus [1, 4]: 1.40E-02 mSv/MBq
Effective Dose Equivalent [1, 4]: 1.60E-02 mSv/MBq
Effective dose [1, 4]: 1.50E-02 mSv/MBq
Absorbed dose per administrated activity, Heart Wall [1, 5]: 0.0390 mSv/MBq and 0.039 mSv/MBq
Absorbed dose per administrated activity, Kidneys [1, 5]: 0.027 mSv/MBq
Absorbed dose per administrated activity, Stomach Wall [1, 5]: 0.024 mSv/MBq
Effective dose [1, 5]: 0.0150 mSv/MBq

[82Rb+].[Cl-] [[^82Rb]Rubidium chloride]
Effective dose [1, 3]: 0.0011 mSv/MBq

[C-]#[N+]CC(C)(C)OC.[C-]#[N+]CC(C)(C)OC.[C-]#[N+]CC(C)(C)OC.[C-]#[N+]CC(C)(C)OC.[C-]#[N+]CC(C)(C)OC.[C-]#[N+]CC(C)(C)OC.[Tc] [[^99mTc]Tc-sestamibi]
accumulation in cardiac tissue [2]: 2.0 ± 0.3 %ID/g
heart/liver ratio [2]: 2.4 ± 0.2
heart/lungs ratio [2]: 5.9 ± 0.5
Effective dose [1, 3]: 0.0079 mSv/MBq
absorbed dose in kidneys [1]: 0.036 mSv/MBq

CCOCCP(CCOCC)CCP(CCOCC)CCOCC.CCOCCP(CCOCC)CCP(CCOCC)CCOCC.[O]=[99Tc+]=[O] [[^99mTc]Tc-tetrofosmin]
Effective dose [1, 3]: 0.0069 mSv/MBq

[Cl][201Tl] [[^201Tl]Thallium chloride]
Effective dose [1, 3]: 0.14 mSv/MBq

From publication PMC11231114 (EJNMMI Research, 2024)
